Test results taken from publication PMC7217877, “N-AS-triggered SPMs are direct regulators of microglia in a model of Alzheimer’s disease” (Nature Communications, 2020).
“And” between values parts separate entries of the source, which are not always exact repeats. Equal values may be shown once.

Assays:
Assay type in all cases: in vivo, mouse
APP/PS1 mice [1] = assay: mRNA levels of inflammatory markers in cortex (real-time PCR, Fig 6j); parameters: iNOS mRNA level (Figure 6j) / IL1b mRNA level (Figure 6j) / Arg1 mRNA level (Figure 6j) / IL4 mRNA level (Figure 6j) / TGFb mRNA level (Figure 6j) / TNF-a mRNA level (Figure 6j) / IL6 mRNA level (Figure 6j): scale not given here
Description: (§1) Transgenic mouse lines over-expressing the hAPP695swe (APP) and presenilin-1M146V (PS1) mutations were originated from GlaxoSmithKline (Harlow, UK)[32] and maintained as described previously. We purchased 5×FAD mice from Jackson Labs (Stock number. 34840-JAX). Because APP/PS1 and 5xFAD mice show sex differences in disease progression, we used only male mice. To examine possible therapeutic effect of N-AS and aspirin in APP/PS1 mice, the N-AS (30 mg kg^−1, Sigma-Aldrich, 01912) was injected daily s.c. for 8 weeks to 7-months-old APP/PS1 mice until the age of 9 months, and aspirin (2 mg kg^−1, Sigma-Aldrich, A5376)[33] was administrated orally to 7-months-old APP/PS1 mice for 8 weeks. Also, to confirm possible therapeutic efficacy of N-AS in 5×FAD, the N-AS (30 mg kg^−1, Sigma-Aldrich, 01912) was injected daily s.c. for 4 weeks to 3-months-old 5×FAD mice until the age of 4 months. Block randomization method was used to allocate the animals to experimental groups. To eliminate the bias, we were blinded in experimental progress such as data collection and data analysis. Mice were housed at temperature of 22 °C and a 12 h day/12 h night cycle with free access to tap water and food pellets. All protocols were approved by the Kyungpook National University Institutional Animal Care and Use Committee.
For total RNA extraction from the microglia derived from WT, APP/PS1, APP/PS1 mice treated with N-AS, and APP/PS1 mice treated with aspirin, the cells were isolated from the cortex of WT, APP/PS1, APP/PS1 mice treated with N-AS, or aspirin using the methods described above. Total RNA was isolated using the kit components according to the manufacturer’s instructions (RNeasy mini kit, 74134, QIAGEN). cDNA was synthesized from 5 μg of total RNA using a commercially available kit (Takara). Quantitative real-time PCR was performed using a Corbett research RG-6000 real-time PCR instrument. Primers are described in Supplementary Table 5.

APP/PS1 mice [2] = assay: morphometric analysis of Aβ plaques by size (Supplementary Fig 5d)
Description: (§2) Thioflavin S (Sigma-Aldrich) staining was carried out according to previously described procedures. We used 6E10 (mouse, 1:100, Signet, SIG39300), anti-20G10 (mouse, 1:1000, provided by D. R. Howlett, GlaxoSmithKline, Harlow, Essex, UK) for Aβ42, anti-G30 (rabbit, 1:1000, provided by D. R. Howlett) for Aβ40, SMA (mouse, 1:400, Sigma-Aldrich, A2547), AT8 (mouse, 1:500, Thermo Fisher Scientific, MN1020), Caspase-3 (mouse, 1:200, Novus Biologicals, NB100-56708), ac-S565 (rabbit, 1:100), COX2 (mouse, 1:250, Thermo Fisher Scientific, 35-8200), Iba1 (rabbit, 1:500, Wako, 019-19941 and goat, Abcam, ab5076), NeuN (mouse, 1:500, Millipore, MAB177), GFAP (rabbit, 1:500, Dako, N1506 and chicken, 1:500, Abcam, ab4674), and Lamp1 (mouse, 1:200, Abcam, ab24170). The sections were analyzed with a laser-scanning confocal microscope (FV3000; Olympus) or with a BX51 microscope (Olympus). MetaMorph software (Molecular Devices) was used to quantification. Three-dimensional reconstruction of microglia was recorded and analyzed using IMARIS software (Bitplane)[11]. For the analysis of age-dependent microglial COX2^+ CX3CR1^+ cells in WT and APP/PS1 mice, COX2 (rabbit, 1:100, Abcam, ab15191) and CX3CR1 (mouse, 1:100, BioLegend, 149008) antibody were used and the images were acquired on Alexa 488 and APC Channel with performed using Operetta CLS and Analysis Software 4.5 (Perkin-Elmer).
as §1

APP/PS1 mice [3] = assay: tau hyperphosphorylation (AT8) quantification (Fig 6g)
Description: as §2, with “(Perkin-Elmer). […]” for “(Perkin-Elmer).”

APP/PS1 mice [4] = assay: western blot of synaptophysin, MAP2, synapsin1, PSD95 in cortex (Supplementary Fig 7a-d); parameters: synaptophysin (western blot, cortex) / MAP2 (western blot, cortex) / synapsin1 (western blot, cortex): scale not given here
Description: Samples were lysed in RIPA buffer (Cell signaling Technologies), then subjected to SDS-PAGE and transferred to a nitrocellulose membrane. Membranes were blocked with 5% milk, incubated with primary antibody and then incubated with the appropriate horseradish peroxidase-conjugated secondary antibody. […] We performed densitometric quantification using the ImageJ software (National Institutes of Health). Images have been cropped for presentation.
as §1

[5] = APP/PS1 + N-AS, individual animals
[6] = APP/PS1 + N-AS, individual values, sFig 5d, in % (unit assumed)

With `CCCCCCCCCCCCC/C=C/[C@@H](O)[C@H](CO)NC(C)=O` [N-AS, N-((2S,3R,E)-1,3-Dihydroxyoctadec-4-en-2-yl)acetamide] the “Arg1 mRNA level (Figure 6j)” value (APP/PS1 mice [1]; [5]) was 1.307 and 2.185 and 1.935 and 1.275 and 1.335 and 1.465, the “IL1b mRNA level (Figure 6j)” value (APP/PS1 mice [1]; [5]) was 1.25 and 0.7 and 1.3 and 0.95 and 0.88 and 1.1 and the “IL4 mRNA level (Figure 6j)” value (APP/PS1 mice [1]; [5]) was 0.765 and 1.235 and 0.984 and 0.825. The “IL6 mRNA level (Figure 6j)” value (APP/PS1 mice [1]; [5]) was 0.7652 and 0.81 and 0.821 and 0.83 and 0.957, the “TGFb mRNA level (Figure 6j)” value (APP/PS1 mice [1]; [5]) was 1.79 and 2.4 and 2.595 and 2.81 and the “TNF-a mRNA level (Figure 6j)” value (APP/PS1 mice [1]; [5]) was 0.865 and 1.34 and 1.37 and 1.005 and 1.085. The “iNOS mRNA level (Figure 6j)” value (APP/PS1 mice [1]; [5]) was 0.92 and 1.42 and 1.85 and 1.2 and 0.78 and 0.55, the “inflammatory response (mRNA of inflammatory markers)” value (APP/PS1 mice [1]; N-AS vs vehicle APP/PS1) was “improved” and the “Aβ plaques by size, 25-50mM” value (APP/PS1 mice [2]; [6]) was 2.008 and 5.136 and 3.485 and 2.167 and 5.808 and 4.496 and 5.407 and 0.9834 and 1.041. For the same compound, the “Aβ plaques by size, <25mM” value (APP/PS1 mice [2]; [6]) was 96.4567 and 90.0482 and 94.697 and 95.0162 and 89.7245 and 91.9498 and 90.3491 and 98.0585 and 97.8053, the “Aβ plaques by size, >50mM” value (APP/PS1 mice [2]; [6]) was 1.535 and 4.815 and 1.818 and 2.8169 and 4.468 and 3.555 and 4.244 and 0.9581 and 1.154 and the “medium (25–50 μm) and large-sized (>50 μm) plaques” value (APP/PS1 mice [2]; N-AS vs vehicle APP/PS1) was “significant reduction of medium (25–50 μm) and large-sized (>50 μm) plaques”. The “number of small (<25 μm) plaques” value (APP/PS1 mice [2]; N-AS vs vehicle APP/PS1) was “significantly increased number of small (<25 μm) plaques”, the “tau hyperphosphorylation (AT8) quantification (Figure 6g)” value (APP/PS1 mice [3]; [5]) was 0.1647 and 0.1634 and 0.2394 and 0.275 and 0.2281 and 0.1841 and the tau hyperphosphorylation (APP/PS1 mice [3]; APP/PS1 treated with N-AS) was “reduced”. The “synaptophysin (western blot, cortex)” value (APP/PS1 mice [4]; APP/PS1 + N-AS, sFig 7a (sheet untitled)) was 2.567 and 3.1595 and 2.9069 and 1.677 and 2.527 and 2.054, the “MAP2 (western blot, cortex)” value (APP/PS1 mice [4]; APP/PS1 + N-AS, sFig 7b (sheet untitled)) was 0.7541 and 0.8231 and 0.7626 and 0.741 and 0.7343 and 0.8145 and the “synapsin1 (western blot, cortex)” value (APP/PS1 mice [4]; APP/PS1 + N-AS, sFig 7c (sheet untitled)) was 0.7506 and 0.7227 and 0.685 and 0.6922 and 0.6413. For the same compound, the “PSD95 (western blot, cortex)” value (APP/PS1 mice [4]; APP/PS1 + N-AS, sFig 7d (sheet untitled)) was 0.7284 and 0.7208 and 0.6479 and 0.6548 and 0.6748 and 0.6067 and the “expression levels of synaptophysin, MAP2, synapsin1, PSD95” value (APP/PS1 mice [4]; N-AS vs APP/PS1) was “restored”.
